Reference: the NIST ThermoML archive (doi:10.1016/j.fluid.2013.07.060)
“And” between values parts separate entries of the source, which are not always exact repeats. Equal values may be shown once. Numbers after ± are expanded uncertainties.

Tests used:
[1] = xn = mol fraction of the nth substance listed; conditions: 101 kPa, Liquid; for viscosity: Capillary tube (Ostwald / Ubbelohde) method; for mass density: Vibrating tube method
[2] = 101.33 kPa, Liquid, Capillary tube (Ostwald / Ubbelohde) method

CCCCCC [hexane] + FC(F)(F)C(F)(F)C(F)(F)C(F)(F)C(F)(F)C(F)(F)F
[1], x2 = 0
Conditions | mass density [kg/m3] | viscosity [mPa·s]
298 K | 655 ± 1 | 0.294 ± 0.006
303 K | – | 0.28 ± 0.006
308 K | – | 0.267 ± 0.006

FC(F)(F)C(F)(F)C(F)(F)C(F)(F)C(F)(F)C(F)(F)F [perfluorohexane] + CCCCCC
[1]
Conditions | mass density, x1 = 0.25 [kg/m3] | mass density, x1 = 0.5 [kg/m3] | mass density, x1 = 0.75 [kg/m3] | mass density, x1 = 1 [kg/m3] | viscosity, x1 = 0.243 [mPa·s] | viscosity, x1 = 0.5 | viscosity, x1 = 0.705 [mPa·s] | viscosity, x1 = 0.727 [mPa·s] | viscosity, x1 = 0.902 [mPa·s] | viscosity, x1 = 1 [mPa·s]
298 K | 956 ± 1 | 1207 ± 1 | 1457 ± 1 | 1672 ± 1 | 0.341 ± 0.008 | 0.408 ± 0.009 mPa·s and 0.407 ± 0.009 mPa·s | 0.458 ± 0.01 | 0.468 ± 0.01 | 0.556 ± 0.012 | 0.635 ± 0.014
303 K | – | – | – | – | 0.319 ± 0.007 | 0.375 ± 0.008 mPa·s | 0.428 ± 0.009 | 0.438 ± 0.01 | 0.52 ± 0.011 | 0.589 ± 0.013
308 K | – | – | – | – | 0.299 ± 0.007 | 0.35 ± 0.008 mPa·s and 0.352 ± 0.008 mPa·s | 0.401 ± 0.009 | 0.41 ± 0.009 | 0.483 ± 0.01 | 0.548 ± 0.012

CCCCCC [hexane]
[2]
Conditions | viscosity [mPa·s]
298.2 K | 0.2937 ± 0.0065
303.16 K | 0.2798 ± 0.0062
308.13 K | 0.2669 ± 0.0059
